What all share (type): cell-based
The target of experiment [1] is EGFR(D770_N771insSVD) expressing Ba/F3 stable cell line (Homo sapiens, UniProt P00533, DUP768-770, cells depend on it). As to the kind of experiment: Cellular proliferation (Alamar Blue) assay, EGFR D770_N771insSVD Ba/F3. The conditions noted are these: 72 hr, read-out: D770 IC50. The method in brief: (§1)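 Ba/F3 cells stably expressing the mutant were seeded at 15,000 per well in RPMI with 10% FBS and left 16-18 hours at 37 degree Celsius. Compounds were then added in 3-fold serial dilutions (final 10-0.0005 μM) for 72 hr, and viability was read with Alamar Blue after 3 hours.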
Chain of EGFR(D770_N771insSVD) expressing Ba/F3 stable cell line (P00533 with tags, fused parts or gaps DUP768-770): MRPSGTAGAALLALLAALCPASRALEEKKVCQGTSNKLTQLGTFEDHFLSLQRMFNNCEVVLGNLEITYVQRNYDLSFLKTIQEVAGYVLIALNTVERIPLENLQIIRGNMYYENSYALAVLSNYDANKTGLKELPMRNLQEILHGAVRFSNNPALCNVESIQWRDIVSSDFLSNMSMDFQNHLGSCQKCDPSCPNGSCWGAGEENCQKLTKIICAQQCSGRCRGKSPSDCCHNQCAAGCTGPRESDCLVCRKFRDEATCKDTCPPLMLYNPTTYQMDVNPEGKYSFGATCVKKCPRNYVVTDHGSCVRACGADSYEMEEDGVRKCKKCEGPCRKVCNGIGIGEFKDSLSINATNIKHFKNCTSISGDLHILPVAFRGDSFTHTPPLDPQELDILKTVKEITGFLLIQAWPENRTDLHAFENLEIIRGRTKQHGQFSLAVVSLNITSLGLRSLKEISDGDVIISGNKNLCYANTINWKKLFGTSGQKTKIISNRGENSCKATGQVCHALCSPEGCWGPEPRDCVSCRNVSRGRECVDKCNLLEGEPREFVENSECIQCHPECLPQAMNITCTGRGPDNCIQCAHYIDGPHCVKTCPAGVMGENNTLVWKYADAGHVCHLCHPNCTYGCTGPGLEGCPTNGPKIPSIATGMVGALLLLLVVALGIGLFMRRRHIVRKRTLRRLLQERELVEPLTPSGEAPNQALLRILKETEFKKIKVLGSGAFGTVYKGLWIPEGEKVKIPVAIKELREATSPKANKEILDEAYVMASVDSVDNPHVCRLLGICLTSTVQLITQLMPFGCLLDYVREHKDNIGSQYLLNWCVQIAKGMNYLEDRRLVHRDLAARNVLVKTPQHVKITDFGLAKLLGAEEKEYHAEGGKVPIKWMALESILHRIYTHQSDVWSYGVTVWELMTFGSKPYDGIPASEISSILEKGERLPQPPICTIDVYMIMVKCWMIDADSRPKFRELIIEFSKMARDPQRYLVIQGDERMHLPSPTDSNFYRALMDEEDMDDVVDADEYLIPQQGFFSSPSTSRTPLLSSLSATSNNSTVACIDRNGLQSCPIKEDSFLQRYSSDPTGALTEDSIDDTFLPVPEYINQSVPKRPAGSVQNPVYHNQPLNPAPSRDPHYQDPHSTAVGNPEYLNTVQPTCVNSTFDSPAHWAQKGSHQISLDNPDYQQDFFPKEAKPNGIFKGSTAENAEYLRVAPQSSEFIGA
Background: The colour change of resazurin is a common sign of viable cells or microbes.

In a further experiment the test system is A431 cells. As to the kind of experiment: Cellular proliferation (Alamar Blue) assay, A431.
The target in experiment [2] is EGFR (A767_dupASV) expressing Ba/F3 stable cell line (Homo sapiens, UniProt P00533, DUP767-769, cells depend on it). Put plainly: Cellular proliferation (Alamar Blue) assay, EGFR A767_dupASV Ba/F3. The conditions noted are these: 72 hr, read-out: A767 IC50. The method in brief: as §1
Chain of EGFR (A767_dupASV) expressing Ba/F3 stable cell line (P00533 with tags, fused parts or gaps DUP767-769): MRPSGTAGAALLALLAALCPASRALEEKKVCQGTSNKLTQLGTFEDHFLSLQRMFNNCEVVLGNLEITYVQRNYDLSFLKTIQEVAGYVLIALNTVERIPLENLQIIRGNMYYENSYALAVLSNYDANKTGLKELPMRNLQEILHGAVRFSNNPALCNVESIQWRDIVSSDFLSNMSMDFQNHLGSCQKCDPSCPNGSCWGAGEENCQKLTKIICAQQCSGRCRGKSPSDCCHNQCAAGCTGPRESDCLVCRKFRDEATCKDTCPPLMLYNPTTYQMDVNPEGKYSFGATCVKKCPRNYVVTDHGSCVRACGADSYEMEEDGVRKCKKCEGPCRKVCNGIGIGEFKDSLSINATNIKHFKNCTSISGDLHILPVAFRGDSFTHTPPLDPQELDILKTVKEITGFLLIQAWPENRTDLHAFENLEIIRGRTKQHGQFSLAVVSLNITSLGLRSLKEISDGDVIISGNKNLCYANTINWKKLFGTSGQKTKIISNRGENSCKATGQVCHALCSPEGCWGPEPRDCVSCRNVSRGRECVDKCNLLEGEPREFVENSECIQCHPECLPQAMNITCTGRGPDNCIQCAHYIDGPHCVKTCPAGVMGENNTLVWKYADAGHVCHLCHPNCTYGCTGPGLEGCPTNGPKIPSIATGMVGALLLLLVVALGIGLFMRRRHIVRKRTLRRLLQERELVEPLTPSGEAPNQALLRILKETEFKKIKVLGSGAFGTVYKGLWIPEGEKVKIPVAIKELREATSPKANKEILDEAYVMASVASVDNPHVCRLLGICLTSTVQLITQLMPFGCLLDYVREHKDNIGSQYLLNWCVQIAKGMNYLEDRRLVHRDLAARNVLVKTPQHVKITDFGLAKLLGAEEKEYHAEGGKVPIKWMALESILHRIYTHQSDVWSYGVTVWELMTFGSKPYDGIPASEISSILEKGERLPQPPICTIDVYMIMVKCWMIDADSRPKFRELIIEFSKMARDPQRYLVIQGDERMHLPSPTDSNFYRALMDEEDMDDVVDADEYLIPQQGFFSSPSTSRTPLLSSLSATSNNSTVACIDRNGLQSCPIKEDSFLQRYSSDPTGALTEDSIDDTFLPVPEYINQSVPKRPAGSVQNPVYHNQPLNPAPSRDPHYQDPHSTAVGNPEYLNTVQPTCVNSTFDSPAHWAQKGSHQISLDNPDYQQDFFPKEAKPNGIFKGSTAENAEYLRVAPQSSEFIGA
Setting [3] is: Homo sapiens, A-431; A431 cells, 72 hr, Alamar Blue; read-out: A431 IC50.
[4] abbreviates: Homo sapiens, A-431; A431 cells, Alamar Blue, 72 hr; read-out: A431 IC50.

The structures appear in SMILES notation. Structures can show the parent of a compound that is named as a salt. Where two headings read alike, the source gives them in different places.

In general, IC50 refers to the concentration that inhibits the measured activity by half.

With `C=CC(=O)Nc1ccc(F)c(Nc2nc(Nc3cc(C)sn3)ncc2-c2ccc(C(F)(F)F)cc2)c1` [Compound 212, N-(4-fluoro-3-((2-((5-methylisothiazol-3-yl)amino)-5-(4-(trifluoromethyl)phenyl)pyrimidin-4-yl)amino)phenyl)acrylamide], the GI50 in experiment [1] worked out at 0.884 µM; in experiment [2], 1.57 µM. Moreover, in the experiment with A431 cells (setting [3]), the half-inhibitory concentration (IC50) was greater than 10 µM.
The matching figures for `C=CC(=O)Nc1ccc(F)c(Nc2nc(Nc3cnn(C4CCOCC4)c3)ncc2-c2ccc(C(F)(F)F)cc2)c1` [Compound 220, N-(4-fluoro-3-((2-((1-(tetrahydro-2H-pyran-4-yl)-1H-pyrazol-4-yl)amino)-5-(4-(trifluoromethyl)phenyl)pyrimidin-4-yl)amino)phenyl)acrylamide]: 0.11 µM, 0.211 µM and 0.133 µM.
The matching figures for `C=CC(=O)Nc1cccc(Oc2nc(Nc3cnn(C)c3)ncc2N2CCN(C)CC2)c1` [Compound 223, N-(3-((2-((1-methyl-1H-pyrazol-4-yl)amino)-5-(4-methylpiperazin-1-yl)pyrimidin-4-yl)oxy)phenyl)acrylamide]: 9.03 µM, 9.7 µM and 3.93 µM.
In the same order, the values of `C=CC(=O)Nc1cc(Nc2nc(Nc3cnn(C)c3)ncc2-c2ccc(C(F)(F)F)cc2)c(F)cn1` [Compound 198, N-[5-fluoro-4-({2-[(1-methyl-1H-pyrazol-4-yl)amino]-5-[4-(trifluoromethyl)phenyl]pyrimidin-4-yl}amino)pyridin-2-yl]prop-2-enamide; trifluoroacetic acid] are 1.27 µM, 2.64 µM and 2.14 µM.
In the case of `C=CC(=O)Nc1ccc(F)c(Nc2nc(NCCN(C)C)ncc2-c2ccc(C(F)(F)F)cc2)c1` [Compound 43, N-(3-((2-((2-(dimethylamino)ethyl)amino)-5-(4-(trifluoromethyl)phenyl)pyrimidin-4-yl)amino)-4-fluorophenyl)acrylamide trifluoroacetate], the GI50 in experiment [1] and in experiment [2] was greater than 10 µM in each case. For the same molecule, in the experiment with A431 cells (setting [4]), the IC50 was 3.67 µM.
`C=CC(=O)Nc1ccc(F)c(Nc2nc(Nc3cnn(C)c3)ncc2N2CCOCC2)c1` [Compound 222, N-(4-fluoro-3-((2-((1-methyl-1H-pyrazol-4-yl)amino)-5-morpholinopyrimidin-4-yl)amino)phenyl)acrylamide]: the GI50 in experiment [1] and in experiment [2] was greater than 10 µM throughout. Also, the IC50 with A431 cells (setting [3]) worked out at 8.15 µM.
Take `C=CC(=O)Nc1ccc(F)c(Nc2nc(Nc3ccc(=O)[nH]c3)ncc2Cl)c1` [Compound 2, N-(3-((5-chloro-2-((6-oxo-1,6-dihydropyridin-3-yl)amino)pyrimidin-4-yl)amino)-4-fluorophenyl)acrylamide]: the results for the GI50 in experiment [1] and in experiment [2] were 9.24 µM and greater than 10 µM, respectively. Also, the IC50 with A431 cells (setting [4]) is greater than 10 µM.
On to `C=CC(=O)Nc1ccc(Nc2nc(Nc3cnn(C)c3)ncc2Cl)c(F)c1` [Compound 10, N-(4-((5-chloro-2-((1-methyl-1H-pyrazol-4-yl)amino)pyrimidin-4-yl)amino)-3-fluorophenyl)acrylamide], for which the GI50 in experiment [1] and in experiment [2] was greater than 10 µM each time. Further, the IC50 with A431 cells (setting [4]) was determined as 3.01 µM.
In the case of `C=CC(=O)Nc1ccc(F)c(Nc2nc(Nc3ccccc3OC)ncc2-c2ccc(C(F)(F)F)cc2)c1` [Compound 39, N-(4-fluoro-3-((2-((2-methoxyphenyl)amino)-5-(4-(trifluoromethyl)phenyl)pyrimidin-4-yl)amino)phenyl)acrylamide trifluoroacetate], the GI50 in experiment [1] came to 3.04 µM; in experiment [2] it was 8.29 µM. Further, the IC50 in the experiment with A431 cells (setting [4]) turned out to be 2.93 µM.
`C=CC(=O)Nc1cccc(N(C)c2nc(Nc3cnn(C)c3)ncc2-c2ccc(C(F)(F)F)cc2)c1` [Compound 229, N-(3-(methyl(2-((1-methyl-1H-pyrazol-4-yl)amino)-5-(4-(trifluoromethyl)phenyl)pyrimidin-4-yl)amino)phenyl)acrylamide]: the GI50 in experiment [1] was found to be 0.318 µM; in experiment [2] it was 0.426 µM. Besides, the IC50 in the experiment on A431 cells (setting [3]) amounted to 0.222 µM.
As to `C=CC(=O)Nc1ccc(F)c(Nc2nc(Nc3cnn(C)c3)ncc2C2=CCN(C)CC2)c1` [Compound 114, N-(4-fluoro-3-((5-(1-methyl-1,2,3,6-tetrahydropyridin-4-yl)-2-((1-methyl-1H-pyrazol-4-yl)amino)pyrimidin-4-yl)amino)phenyl)acrylamide], the figures for the GI50 in experiment [1] and in experiment [2] were 1.84 µM and 0.964 µM, respectively. Further, the IC50 in the experiment on A431 cells (setting [4]) was 0.816 µM.
Take `C=CC(=O)Nc1cccc(Nc2nc(Nc3cnn(C)c3)nc(NC)c2-c2ccc(C(F)(F)F)cc2)c1` [Compound 224, N-[3-({2-[(1-methyl-1H-pyrazol-4-yl)amino]-6-(methylamino)-5-[4-(trifluoromethyl)phenyl]pyrimidin-4-yl}amino)phenyl] prop-2-enamide]: the GI50 in experiment [1] and in experiment [2] was greater than 10 µM throughout. The IC50 with A431 cells (setting [3]) is greater than 10 µM.
As for `C=CC(=O)Nc1ccc(F)c(Nc2nc(Nc3cnn(C)c3)cnc2Cl)c1` [Compound 153, N-(3-((3-chloro-6-((1-methyl-1H-pyrazol-4-yl)amino)pyrazin-2-yl)amino)-4-fluorophenyl)acrylamide], the GI50 in experiment [1] and in experiment [2] was greater than 10 µM in each case. In addition, in the experiment with A431 cells (setting [4]), the half-maximal inhibitory concentration (IC50) is greater than 10 µM.
With `C=CC(=O)Nc1ccc(OC)c(Oc2nc(Nc3cnn(CCO)c3)ncc2Cl)c1` [Compound 171, N-(3-((5-chloro-2-((1-(2-hydroxyethyl)-1H-pyrazol-4-yl)amino)pyrimidin-4-yl)oxy)-4-methoxyphenyl)acrylamide], the GI50 in experiment [1] and in experiment [2] was greater than 10 µM each time. In the experiment with A431 cells (setting [4]), the half-maximal inhibitory concentration (IC50) is greater than 10 µM.
Regarding `C=CC(=O)Nc1ccc(F)c(Nc2nc(NC3CC3)ncc2-c2ccc(C(F)(F)F)cc2)c1` [Compound 180, N-(3-{[2-(cyclopropylamino)-5-[4-(trifluoromethyl)phenyl]pyrimidin-4-yl]amino}-4-fluorophenyl)prop-2-enamide], the GI50 in experiment [1] and in experiment [2] was greater than 10 µM in each case. In addition, the IC50 with A431 cells (setting [4]) was greater than 10 µM.
On to `C=CC(=O)Nc1ccc(F)c(Nc2nc(Nc3cnn(C)c3)ncc2C2CCN(C)C2)c1` (stereo not drawn) [Compound 227, N-[4-fluoro-3-({2-[(1-methyl-1H-pyrazol-4-yl)amino]-5-(1-methylpyrrolidin-3-yl)pyrimidin-4-yl}amino)phenyl]prop-2-enamide], for which the GI50 in experiment [1] was greater than 10 µM; in experiment [2], 7.09 µM. Moreover, the IC50 with A431 cells (setting [3]) is 6.06 µM.
Take `C=CC(=O)Nc1ccc(F)c(Nc2nc(Nc3cnn(C)c3)ncc2-c2cccc(N(C)C)c2)c1` [Compound 145, N-(3-((5-(3-(dimethylamino)phenyl)-2-((1-methyl-1H-pyrazol-4-yl)amino)pyrimidin-4-yl)amino)-4-fluorophenyl)acrylamide]: the GI50 in experiment [1] stood at 0.911 µM; in experiment [2], 2.02 µM. Further, in the experiment with A431 cells (setting [4]), the IC50 was found to be 3.98 µM.
Consider `C=CC(=O)Nc1ccc(F)c(Nc2nc(Nc3cccnc3)ncc2-c2ccc(C(F)(F)F)cc2)c1` [Compound 232, N-(4-fluoro-3-((2-(pyridin-3-ylamino)-5-(4-(trifluoromethyl)phenyl)pyrimidin-4-yl)amino)phenyl)acrylamide], for which the GI50 came out at 0.724 µM in experiment [1] and 1.13 µM in experiment [2]. Also, the IC50 in the experiment with A431 cells (setting [3]) came out at 0.539 µM.

Source of the values: US12686673B2 (Blueprint Medicines Corporation, priority 2020, dated 2026).
